# Assay: stability in the presence of water
# Assay type: physicochemical
smiles,measurement,value
"CCCCCCCCCCCCCCCC[n+]1ccccc1.O=C([O-])Cc1ccccc1Nc1c(Cl)cccc1Cl [cetylpyridinium salt of diclofenac, cetylpyridinium (1-hexadecylpyridinium) salt of diclofenac]",stability in the presence of water,virtually infinite

# — patent US7250428B2, “Cetylpyridinium salt of an anti-inflammatory agent and pharmaceutical compositions containing it” (Aziende Chimiche Riunite Angelini Francesco A.C.R.A.F. …, priority 2003, dated 2007)
